Measurements published in patent US9938321B2, “Cyclic peptoid oligomers, pharmaceutical compositions and methods of using the same” (priority 2013, dated 2018).
pIC50: −log10 of the molar value. Values after ≈ are worked out from the molar mass of the structure shown. Where two headings read alike, the source gives them in different places. Non-standard residues stand in square brackets, D forms with d. Residues, ends and D or L forms follow the SMILES beside them. Gly(N(CH2)3NH2) = NCCCNCC(=O)O; Nphe = O=C(O)CNCc1ccccc1; Orn = NCCC[C@H](N)C(=O)O; Nlys = NCCCCNCC(=O)O

Legend:
human erythrocytes = assay type: cell-based; conditions: red cells of human, 1 h
Excerpt: A detrimental property of most AMPs is their toxicity towards host cells due to non-specific interactions with eukaryotic membranes. Thus, the development of antimicrobial oligomers is often aimed at maximizing antimicrobial activity while minimizing eukaryotic cell toxicity. The inventors therefore sought to determine the toxicity of the cyclic peptoids by measuring hemolytic activity. The concentration of antimicrobial compound required to lyse 10% of human erythrocytes (HC10) following incubation for 1 hour at 37° C., was determined.
Hemolysis assays were conducted in 96-well plates using fresh human erythrocytes in PBS (phosphate-buffered saline) solution. Erythrocytes treated with a detergent (1% Triton X-100) solution were used as a positive control for erythrocyte lysis, and vehicle buffer (PBS) was used as a negative control. Hemolytic percentages were defined as [(A−Atestblank)/(Acontrol−Ablank)]×100, where A is the absorbance of the test well and Acontrol the average absorbance of wells with erythrocytes exposed to […], Atestblank (PBS and antimicrobial) and Ablank (PBS only).

[1] = test system: MRSA USA300 (S. aureus LAC); conditions: for MIC + NHS: MRSA USA300 in 50% (v/v) normal human serum; for decrease in anti-microbial activity in serum: 50% NHS versus no serum
Procedure: The antimicrobial activities of these four compounds were evaluated in the presence of serum. Such a consideration is critical in evaluating the potential of antimicrobial compounds to be used systemically, as serum components (e.g. proteins) may complicate antimicrobial activity. The assay was conducted similarly as described above, with the media supplemented with 50% normal human serum (NHS).
(§1) Minimum Inhibitory Concentrations (MIC) were determined against S. aureus LAC in RPMI media supplemented with or without normal human serum (NHS). The 10% hemolytic dose was determined from lysis of human erythrocytes. A selectivity ratio (SR) is defined as HC10/MIC. Cytotoxicity assays were performed using a CellTiter kit with HeLa cells. […] TI: therapeutic index defined as LD50/MIC.
(§2) Antimicrobial susceptibility assays were conducted in 96-well plates using the broth microdilution procedure outlined in the document M07-A7 of the CLSI (Clinical and Laboratory Standards Institute. Methods for Dilution Antimicrobial Susceptibility Tests for Bacteria That Grow Aerobically-Seventh Edition: Approved Standard CLSI document M07-A7. CLSI, Wayne, USA, 2006). Screens against Staphylococcus aureus LAC, MW2, Newman, and RN6734 were conducted in RPMI (Roswell Park Memorial Institute) medium. For assays in serum, normal human pooled serum (NHS) was filtered through a 0.45 μm syringe filter (Pall) prior to dilution with RPMI, such that each well contained 50% (v/v) NHS. Experiments were conducted in three independent replicates of three parallel trials to ensure statistical significance.
(§3) MRSA pulse-field gel electrophoresis types USA300 (strain LAC) (Kennedy, et al, Proc. Natl. Acad. Sci. U.S.A. 2008, 105, 1327-1332) and USA500 (BK2395) (Alonzo, 3rd, et al, Mol. Microbiol. 2012, 83, 423-435) were used in this study. S. aureus were grown in tryptic soy broth (BD Biosciences) as described previously. (Alonzo) Antimicrobial susceptibility assays were conducted in 96-well plates using the broth […] procedure outlined in the document M07-A7 of the CLSI. (Clinical and Laboratory Standards Institute. Methods for Dilution Antimicrobial Susceptibility Tests for Bacteria That Grow Aerobically-Seventh Edition: Approved Standard CLSI document M07-A7. CLSI, Wayne, USA, 2006). The screens against Staphylococcus aureus LAC were conducted in either LB (Luria-Bertani) or RPMI medium. For assays in serum, normal human pooled serum (NHS) was filtered through a 0.45 μm syringe filter (Pall) prior to dilution with RPMI, such that each well contained 50% (v/v) NHS. Experiments were conducted in three independent replicates of three parallel trials to ensure statistical significance.

in vitro = conditions: for CC50 / CC50 at 1 h: LC50 (50% lethal concentration), HeLa cells, 1 hr incubation at 37° C.
Procedure: (§4) As an additional parameter of selectivity, the inventors also evaluated the compounds for toxicity towards nucleated mammalian cells (FIG. 3). The compounds were incubated with HeLa cells for 1 hr at 37° C. and cell viability was determined by a dye-based assay.
(§5) HeLa cells (˜[…] cells per well) were seeded in a tissue culture-treated 96-well plate (Corning). The cells were monitored for confluence via light microscopy prior to the addition of compounds to a final volume of 100 μL/well. Following incubation with the compounds (for 1 hour or 24 hours at 37° C.), Cell Titer (Promega) was added to each well and the assay was allowed to develop for 1 hour at 37° C. Absorbance was then read at 490 nm using a Wallac Envision plate reader. The experiments were always conducted in triplicate with water or ethanol as the negative control. Percent cell viability (% CV) was calculated as the ratio of mean absorbance of the test wells and the mean absorbance of the water or ethanol treated wells.
(§6) Following seeding in DMEM supplemented with 10% v/v FBS (fetal bovine serum) in tissue-culture plates (Corning), adherent HeLa cells were trypsinized, washed in PBS, and re-suspended in medium at a density of 1×10^6 cells/mL. A 100 μL cell suspension was seeded onto a 96-well plate and cultured for 25 hrs. Subsequently, cells were exposed to the different compounds for 1 and 24 hrs and the cell viability evaluated using CellTiter 96® AQueous Non-Radioactive Cell Proliferation Assay (Promega).

[2] = test system: Plasmodium falciparum 3D7; conditions: 3D7, 96 h
Procedure: In order to assess the ability of the peptoid oligomers described herein to act as antimalarial agents, fluorescence-based in vitro antimalarial assays were performed.
Cultures are maintained by changing the medium daily and keeping parasitemia below 6%. When performed, parasite cultures are synchronized using a MACS cell separation column (Miltenyi Biotec). To determine parasitemia, the number of parasitized erythrocytes from 500 cells in a Giemsa stained blood smear are counted.
Drug Treatment: • 1. Add 100 μL of warm (37° C.) complete media containing drug to each well of a 96 multi-well clear, sterile plate. • 2. […] After 96 hours of growth*, freeze at −80° C. overnight. *Note: Growth can be examined by pipetting 5 from desired wells onto slides and creating blood smears. […] After freezing, thaw at 37° C. for 4 hours. • 6. Transfer 100 μL, pipetting wells up and down to mix, to a black, sterile 96 well plate. • 7. Create working solution of 0.2 μL of SYBR Green per 1 mL of lysis buffer, and add 100 μL of this solution to each well, pipetting up and down to mix/lyse erythrocytes. *Note: mixture should be a translucent red color. • 8. Incubate at room temperature, protected from light, on a shaker for 1 hour.
Measure the fluorescence using excitation and emission wavelengths of 485 and 530 nm, respectively. […]

[3] = test system: MRSA USA300 (S. aureus LAC)
Procedure: The cyclic pentamers and hexamers were evaluated for antimicrobial activity against S. aureus LAC, a clinical isolate of MRSA. The antimicrobial assay was conducted using previously published procedures (CLSI Broth Macrodilution Procedures CLSI M07-A7).
as §1, §2, §3

HeLa cells = experiment: in vitro; conditions: HeLa cells, 1 hr incubation at 37° C.
Procedure: as §4, §5, §6

S. aureus LAC = experiment: Scanning electron microscopy of treated cells (Example 1); assay type: cell-based, Staphylococcus aureus; conditions: sub-MIC, MIC, or supra-MIC; 1 hr or 18 hr
Excerpt: AMPs have long been thought to exert their bactericidal activities by interacting with negatively-charged bacterial membranes (Zasloff, Nature 2002, 415, 389-395; Ivankin, et al, Angew. Chem. Int. Ed. 2010, 49, 8462-8465). While the exact mode of action has yet to be fully understood, the interaction of the AMP eventually leads to damage of the bacterial membrane that is visible by scanning electron microscopy (SEM). (Hartmann et al, 2010, Antimicrob Agents Ch 54, 3132-3142) SEM was used to examine the morphological changes which occur to the S. aureus cell surface upon exposure to peptoid antimicrobials (FIG. 2).
SEM samples were prepared following the procedure outlined in Hartmann et al ([…], Antimicrob Agents Ch 54:3132-3142). Mid-exponential S. aureus LAC in LB medium (10 g/L tryptone and 5 g/L yeast, pH 7.4) was prepared by diluting an overnight culture of S. aureus LAC in LB media till OD600˜0.4 (approximately 3 hours at 37° C.). […] After washing with PBS, the samples were treated with 30% ethanol for 10 minutes, 3% uranyl acetate (Electron Microscopy Sciences) in 30% ethanol/water, 50% ethanol for 10 minutes, and 70% ethanol overnight at 4° C. […]

physchem = conditions: water
[4] = Table 2, S. aureus LAC, clinical isolate of MRSA
[5] = Table 3, MRSA USA300, without serum

NCCCN1CC(=O)N(Cc2ccccc2)CC(=O)N(CCCN)CC(=O)N(Cc2ccccc2)CC(=O)N(CCCN)CC(=O)N(Cc2ccccc2)CC1=O [Compound 23, C(NapNpm)3] (cyclo([Nphe][Gly(N(CH2)3NH2)][Nphe][Gly(N(CH2)3NH2)][Nphe][Gly(N(CH2)3NH2)]))
HC10 (concentration required to lyse 10% of human erythrocytes) (human erythrocytes): >250 µg/mL

NCCCCN1CC(=O)N(Cc2ccccc2)CC(=O)N(CCCCN)CC(=O)N(Cc2ccccc2)CC(=O)N(CCCCN)CC(=O)N(Cc2ccccc2)CC1=O [Compound 30, C(NabNpm)3] (cyclo([Nlys][Nphe][Nlys][Nphe][Nlys][Nphe]))
HC10 (concentration required to lyse 10% of human erythrocytes) (human erythrocytes): >250 µg/mL

N=C(N)NCCCCN1CC(=O)N(CC(c2ccccc2)c2ccccc2)CC(=O)N(CCCCNC(=N)N)CC(=O)N(CC(c2ccccc2)c2ccccc2)CC(=O)N(CCCCNC(=N)N)CC(=O)N(CC(c2ccccc2)c2ccccc2)CC(=O)N(CCCCNC(=N)N)CC(=O)N(CC(c2ccccc2)c2ccccc2)CC(=O)N(CCCCNC(=N)N)CC(=O)N(CC(c2ccccc2)c2ccccc2)CC1=O [Compound 31, C(NgbNdp)5]
HC10 (concentration required to lyse 10% of human erythrocytes) (human erythrocytes): >62.5 µg/mL

NCCCN1CC(=O)N(CC(c2ccccc2)c2ccccc2)CC(=O)N(CCCN)CC(=O)N(CC(c2ccccc2)c2ccccc2)CC(=O)N(CCCN)CC(=O)N(CC(c2ccccc2)c2ccccc2)CC1=O [Compound C3, C(NapNdp)3]
MIC + NHS [1]: 15.6 µg/mL
CC50 (in vitro): 63 µg/mL (≈ 59.8 µM)

COc1ccc(CN2CC(=O)N(CCCN)CC(=O)N(Cc3ccc(OC)c(OC)c3)CC(=O)N(CCCN)CC(=O)N(Cc3ccc(OC)c(OC)c3)CC(=O)N(CCCN)CC2=O)cc1OC [Compound C5-1]
pIC50 [2]: 4.57

NCCCN1CC(=O)N(CCC(c2ccccc2)c2ccccc2)CC(=O)N(CCCN)CC(=O)N(CCC(c2ccccc2)c2ccccc2)CC(=O)N(CCCN)CC(=O)N(CCC(c2ccccc2)c2ccccc2)CC1=O [Compound C103, C(NapNdpp)3]
MIC ([3]; USA300): 3.9 µg/mL (≈ 3.56 µM)

NCCCN1CC(=O)N(C(c2ccccc2)c2ccccc2)CC(=O)N(CCCN)CC(=O)N(C(c2ccccc2)c2ccccc2)CC(=O)N(CCCN)CC(=O)N(C(c2ccccc2)c2ccccc2)CC1=O [Compound C104, C(NapNdpm)3]
MIC ([3]; USA300): 3.9 µg/mL (≈ 3.85 µM)

NCCCN1CC(=O)N(Cc2ccc(-c3ccccc3)cc2)CC(=O)N(CCCN)CC(=O)N(Cc2ccc(-c3ccccc3)cc2)CC(=O)N(CCCN)CC(=O)N(Cc2ccc(-c3ccccc3)cc2)CC1=O [Compound C105, C(NapNpp)3]
MIC ([3]; USA300): 3.9 µg/mL (≈ 3.85 µM)

NCCCN1CC(=O)N(c2ccc3c(c2)Cc2ccccc2-3)CC(=O)N(CCCN)CC(=O)N(c2ccc3c(c2)Cc2ccccc2-3)CC(=O)N(CCCN)CC(=O)N(c2ccc3c(c2)Cc2ccccc2-3)CC1=O [Compound C106, C(NapN2flene)3]
MIC ([3]; USA300): 3.9 µg/mL (≈ 3.88 µM)

Cc1ccc(CN2CC(=O)N(CCCN)CC(=O)N(Cc3ccc(C)cc3)CC(=O)N(CCCN)CC(=O)N(Cc3ccc(C)cc3)CC(=O)N(CCCN)CC2=O)cc1 [Compound C122, C(NapNpmpm)3]
MIC [3, 4]: 15.6 µg/mL (≈ 18.9 µM)

NCCCN1CC(=O)N(Cc2ccc(C(F)(F)F)cc2)CC(=O)N(CCCN)CC(=O)N(Cc2ccc(C(F)(F)F)cc2)CC(=O)N(CCCN)CC(=O)N(Cc2ccc(C(F)(F)F)cc2)CC1=O [Compound C123, C(NapNptfmpm)3]
MIC ([3]; USA300): 3.9 µg/mL (≈ 3.95 µM)

Cc1cc(C)cc(CN2CC(=O)N(CCCN)CC(=O)N(Cc3cc(C)cc(C)c3)CC(=O)N(CCCN)CC(=O)N(Cc3cc(C)cc(C)c3)CC(=O)N(CCCN)CC2=O)c1 [Compound C124, C(NapNdmb)3]
MIC [3, 4]: 3.9 µg/mL (≈ 4.49 µM)
MIC ([3]; USA300): 3.9 µg/mL (≈ 4.49 µM)
decrease in anti-microbial activity in serum [1]: approximately four-fold
MIC + NHS [1]: 15.6 µg/mL
HC10 (concentration required to lyse 10% of human erythrocytes) (human erythrocytes): 125 µg/mL
CC50 at 24 h (in vitro; human): ~100 µg/mL (≈ 115 µM)
CC50 at 1 h (in vitro; human): 180 µg/mL (≈ 207 µM)
LC50 (50% lethal concentration) (HeLa cells): ~180 µg/mL (≈ 207 µM)
cell morphology by SEM (S. aureus LAC): cell surface damage
pIC50 [2]: 4.77
solubility (physchem): ≥ 15 mg/mL

NCCCN1CC(=O)N(Cc2cc(C(F)(F)F)cc(C(F)(F)F)c2)CC(=O)N(CCCN)CC(=O)N(Cc2cc(C(F)(F)F)cc(C(F)(F)F)c2)CC(=O)N(CCCN)CC(=O)N(Cc2cc(C(F)(F)F)cc(C(F)(F)F)c2)CC1=O [Compound C125, C(NapNbtfmb)3]
MIC [3, 4]: 3.9 µg/mL (≈ 3.27 µM)
MIC [3, 5]: 3.9 µg/mL (≈ 3.27 µM)
decrease in anti-microbial activity in serum [1]: sixteen-fold
MIC + NHS [1]: 62.5 µg/mL
CC50 at 1 h (in vitro; human): 47 µg/mL (≈ 39.4 µM)

CC(C)C[C@@H]1NC(=O)[C@H](CCCN)NC(=O)[C@H](C(C)C)NC(=O)[C@@H]2CCCN2C(=O)[C@@H](Cc2ccccc2)NC(=O)[C@H](CC(C)C)NC(=O)[C@H](CCCN)NC(=O)[C@H](C(C)C)NC(=O)[C@@H]2CCCN2C(=O)[C@@H](Cc2ccccc2)NC1=O [Gramicidin S, reference compound] (cyclo(V[Orn]L[dF]PV[Orn]L[dF]P))
MIC [3, 5]: 31.3 µg/mL (≈ 27.4 µM)
MIC + NHS [1]: 31.3 µg/mL
CC50 (in vitro): 31.3 µg/mL (≈ 27.4 µM)
